This test concerns the target Protein cereblon/Androgen receptor (Homo sapiens, UniProt P10275+Q96SW2). Put plainly: Protac activity at E3 ubiquitin ligase/androgen receptor in human LNCaP cells assessed as induction of androgen receptor degradation incubated for overnight by sandwich ELISA. In kind it is cell-based. A general note: In an ELISA, binding on a coated surface is turned into a signal by an enzyme label.
Sequence of Protein cereblon/Androgen receptor (P10275 whole entry): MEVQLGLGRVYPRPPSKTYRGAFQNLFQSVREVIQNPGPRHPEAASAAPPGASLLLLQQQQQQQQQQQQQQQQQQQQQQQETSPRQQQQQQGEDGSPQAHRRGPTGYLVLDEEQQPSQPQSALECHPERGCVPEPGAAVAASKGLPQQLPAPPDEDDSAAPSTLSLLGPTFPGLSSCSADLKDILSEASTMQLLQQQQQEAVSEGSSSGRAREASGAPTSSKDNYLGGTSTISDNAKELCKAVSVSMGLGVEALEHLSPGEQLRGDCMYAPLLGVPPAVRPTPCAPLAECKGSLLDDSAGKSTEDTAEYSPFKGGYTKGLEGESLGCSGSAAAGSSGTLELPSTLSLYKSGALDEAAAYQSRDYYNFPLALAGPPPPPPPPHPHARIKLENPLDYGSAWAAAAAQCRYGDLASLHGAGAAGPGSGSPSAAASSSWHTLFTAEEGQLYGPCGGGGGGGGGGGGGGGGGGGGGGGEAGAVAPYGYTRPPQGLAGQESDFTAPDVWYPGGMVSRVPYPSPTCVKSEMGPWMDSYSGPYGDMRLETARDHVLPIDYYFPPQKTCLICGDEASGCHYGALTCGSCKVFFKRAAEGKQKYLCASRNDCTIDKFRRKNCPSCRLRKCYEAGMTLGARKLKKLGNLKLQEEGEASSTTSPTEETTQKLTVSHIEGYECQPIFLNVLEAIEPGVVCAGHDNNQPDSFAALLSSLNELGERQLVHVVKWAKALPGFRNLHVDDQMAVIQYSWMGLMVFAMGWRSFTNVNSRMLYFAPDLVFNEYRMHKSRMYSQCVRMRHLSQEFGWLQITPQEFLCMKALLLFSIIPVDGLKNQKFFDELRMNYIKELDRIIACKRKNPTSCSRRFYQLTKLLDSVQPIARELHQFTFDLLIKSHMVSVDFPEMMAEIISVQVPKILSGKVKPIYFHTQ
Sequence of Protein cereblon/Androgen receptor (Q96SW2 whole entry): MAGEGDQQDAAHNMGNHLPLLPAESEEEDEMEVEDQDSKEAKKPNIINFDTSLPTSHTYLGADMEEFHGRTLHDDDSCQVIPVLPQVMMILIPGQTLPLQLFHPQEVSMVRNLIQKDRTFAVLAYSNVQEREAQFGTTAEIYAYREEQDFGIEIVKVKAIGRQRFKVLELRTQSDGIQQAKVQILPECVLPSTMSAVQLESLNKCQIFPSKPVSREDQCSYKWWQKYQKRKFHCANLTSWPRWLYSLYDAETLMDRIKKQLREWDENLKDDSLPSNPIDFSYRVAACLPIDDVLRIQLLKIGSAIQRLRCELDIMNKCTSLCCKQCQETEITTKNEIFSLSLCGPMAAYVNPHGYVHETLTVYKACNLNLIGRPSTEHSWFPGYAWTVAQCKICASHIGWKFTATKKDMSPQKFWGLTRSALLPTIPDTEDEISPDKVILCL
In general, DC50 refers to the midpoint of the concentration-degradation curve. `N#Cc1ccc(N2CCc3c(ncnc3Nc3ccc(C(=O)NC4CCN(CC5CCN(c6ccc7c(c6)C(=O)N(C6CCC(=O)NC6=O)C7=O)CC5)CC4)c(F)n3)C2)cc1Cl` (configuration not stated): the half-maximal degradation concentration (DC50) was found to be 8.5 nM. For the compound `N#Cc1ccc(N2CCc3c(ncnc3Nc3ccc(C(=O)N4CCC(CN5CCN(c6cc7c(cc6F)C(=O)N(C6CCC(=O)NC6=O)C7=O)CC5)CC4)c(F)n3)C2)cc1Cl` (configuration not stated), the DC50 came out at 11.6 nM. For `CN(C1CCN(C(=O)c2ccc(Nc3ncnc4c3CCN(c3ccc(C#N)c(Cl)c3)C4)nc2F)CC1)C1CCN(c2ccc3c(c2)C(=O)N(C2CCC(=O)NC2=O)C3=O)CC1` (configuration not stated), the DC50 turned out to be 4.82 nM. Take `N#Cc1ccc(N2CCc3c(ncnc3Nc3ccc(C(=O)N4CCC(CN5CCN(c6ccc7c(c6)C(=O)N(C6CCC(=O)NC6=O)C7=O)CC5)CC4)c(F)n3)C2)cc1Cl` (configuration not stated): the DC50 was determined as 3.2 nM. Take `N#Cc1ccc(N2CCc3c(ncnc3Nc3ccc(C(=O)NCC(=O)N4CCC(CN5CCN(c6cc7c(cc6F)C(=O)N(C6CCC(=O)NC6=O)C7=O)CC5)CC4)c(F)n3)C2)cc1Cl` (configuration not stated): the DC50 is 2.8 nM.

In the case of `N#Cc1ccc(N2CCc3c(ncnc3Nc3ccc(C(=O)NC4CCN(C5CCN(c6ccc7c(c6)C(=O)N(C6CCC(=O)NC6=O)C7=O)CC5)CC4)c(F)n3)C2)cc1Cl` (configuration not stated), the DC50 was determined as 4.9 nM. Turning to `C[C@@H]1CN(c2ccc3c(c2)C(=O)N(C2CCC(=O)NC2=O)C3=O)CCN1C[C@H]1CC[C@H](NC(=O)c2ccc(Nc3ncnc4c3CCN(c3ccc(C#N)c(Cl)c3)C4)nc2F)CC1` (some centres not stated), the DC50 amounted to 5.3 nM. Turning to `N#Cc1ccc(N2CCc3c(ncnc3Nc3ccc(C(=O)NCCC(=O)N4CCC(CN5CCN(c6cc7c(cc6F)C(=O)N(C6CCC(=O)NC6=O)C7=O)CC5)CC4)c(F)n3)C2)cc1Cl` (configuration not stated), the DC50 stood at 7.7 nM.

In the case of `CN(C1CCN(C(=O)c2ccc(Nc3ncnc4c3CCN(c3ccc(C#N)c(Cl)c3)C4)nc2F)CC1)C1CCN(c2cc3c(cc2F)C(=O)N(C2CCC(=O)NC2=O)C3=O)CC1` (configuration not stated), the DC50 was 16.6 nM. With `N#Cc1ccc(N2CCc3c(ncnc3Nc3ccc(C(=O)NCCCCCCN4CCN(c5ccc6c(c5)C(=O)N(C5CCC(=O)NC5=O)C6=O)CC4)c(F)n3)C2)cc1Cl` (configuration not stated) the figure was 3 nM; with `N#Cc1ccc(N2CCc3c(ncnc3Nc3ccc(C(=O)N[C@H]4CC[C@H](CN5CCN(c6cc7c(cc6F)C(=O)N(C6CCC(=O)NC6=O)C7=O)CC5)CC4)c(F)n3)C2)cc1Cl` (some centres not stated), 9.2 nM; with `C[C@H]1CN(c2ccc3c(c2)C(=O)N(C2CCC(=O)NC2=O)C3=O)CCN1C[C@H]1CC[C@H](NC(=O)c2ccc(Nc3ncnc4c3CCN(c3ccc(C#N)c(Cl)c3)C4)nc2F)CC1` (some centres not stated), 9.1 nM.
